Source: patent US20020137929A1, “1 - (3-heterocyclylphenyl) isothiourea, -isourea, -guanidine and -amidine herbicidal agents” (Intellectual Property Department, BASF Aktiengesellschaft, priority 1998, published 2002)

Assays:
[1] = system: ABUTH (Velvetleaf); experiment: Postemergence herbicidal evaluation; type: in vivo, Abutilon theophrasti; conditions: postemergence
Summary of the method: (§1)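 Two-week seedlings sprayed postemergence at 40 psi; formulation: 1:1 acetone/water, 0.5% TWEEN 20; application ≈0.0156–0.500 kg/ha. Greenhouse grow-out, then 0–9 visual scoring at 4–5 weeks.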

[2] = system: SETVI (Foxtail, Green); experiment: Postemergence herbicidal evaluation; type: in vivo, Setaria viridis; conditions: postemergence
Summary of the method: as §1

[3] = system: ZEAMX (Corn, Field); experiment: Postemergence herbicidal evaluation; type: in vivo, Zea mays; conditions: postemergence
Summary of the method: as §1

[4] = system: ABUTH (Velvetleaf); experiment: Preemergence herbicidal evaluation; type: in vivo, Abutilon theophrasti; conditions: rated 4-5 weeks after treatment
Summary of the method: (§2)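 Herbicidal effect scored visually, 0-9, at 4 to 5 weeks against a control; compound applied preemergence by aqueous acetone spray to seeded soil at about 0.0156 to 0.500 kg/ha.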

[5] = system: AMBEL (Ragweed, Common); experiment: Preemergence herbicidal evaluation; type: in vivo, Ambrosia artemisifolia; conditions: rated 4-5 weeks after treatment
Summary of the method: as §2

[6] = system: CASOB (Sicklepod); experiment: Preemergence herbicidal evaluation; type: in vivo, Cassia obtusifolia; conditions: rated 4-5 weeks after treatment
Summary of the method: as §2

[7] = system: ECHCG (Barnyardgrass); experiment: Preemergence herbicidal evaluation; type: in vivo, Echinochloa crus-galli; conditions: rated 4-5 weeks after treatment
Summary of the method: as §2

[8] = system: ECHORC (Watergrass (Calif.)); experiment: Preemergence weed control under flooded paddy conditions; type: in vivo, Echinochloa oryzoides; conditions: rated 3-4 weeks after treatment
Summary of the method: (§3)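 Herbicidal effect is scored visually on a 0-9 scale against an untreated control, three to four weeks after compounds are pipetted into the flood water (1.5 to 3 cm deep) over seeds planted in silt loam at 0.5 cm depth. Rates: about 0.0313 to 0.500 kg/ha.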

[9] = system: CYPSE (Flatsedge); experiment: as above; type: in vivo, Cyperus serotinus; conditions: rated 3-4 weeks after treatment
Summary of the method: as §3

[10] = system: ECHORC (Watergrass (Calif.)); experiment: Postemergence weed control under flooded paddy conditions; type: in vivo, Echinochloa oryzoides; conditions: postemergence weeds, 3-4 weeks after treatment
Summary of the method: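 Flood-water application, about 0.0313–0.500 kg/ha a.i. in aqueous/acetone 50/50 v/v; water depth 1.5–3 cm throughout. Weeds 3–5 cm, rice 1.5–2.5 leaf. Greenhouse; 0–9 visual rating vs control at 3–4 wk.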

[11] = system: CYPIR (Rice Flatsedge); experiment: as above; type: in vivo, Cyperus iria; conditions: postemergence weeds, 3-4 weeks after treatment
Text: Results of herbicide evaluation are expressed on a rating scale (0-9). The scale is based upon a visual observation of plant stand, vigor, malformation, size, chlorosis and overall plant appearance as compared with a control.
Plastic containers containing weeds which are 3 to 5 cm tall and rice seedlings at the 1.5 to 2.5 leaf stage are flooded with water. The water is maintained at 1.5 to 3 cm above the soil surface for the duration of the experiment. Test compounds are applied as aqueous/ acetone mixtures 50/50 v/v directly into the flood water to provide the equivalent of about 0.0313 to 0.500 kg/ha of active ingredient. The treated containers are placed on greenhouse benches and cared for in accordance with conventional greenhouse procedures. Three to four weeks after treatment, the test is terminated and each container is examined and herbicidal effect rated according to the rating system provided in Example 37. The compounds evaluated are reported by compound number given in Example 37.

[12] = system: GLXMAW (Soybean, Williams); experiment: Postemergence herbicidal evaluation; type: in vivo, Glycine max, (L.) Merr. cv Williams; conditions: postemergence
Summary of the method: as §1

[13] = system: IPOHE (Morningglory, Ivyleaf); experiment: Preemergence herbicidal evaluation; type: in vivo, Ipomoea hederacea; conditions: rated 4-5 weeks after treatment
Summary of the method: as §2

CCC1SC(=Nc2cc(N3C(=O)C4=C(CCCC4)C3=O)c(F)cc2Cl)N(C)C1=O (stereo not shown) [Compound 6, N-{4-chloro-5-[(5-ethyl-3-methyl-4-oxo-2-thiazolidinylidene)amino]-2-fluorophenyl}-1-cyclohexene-1,2-dicarboximide]
ABUTH herbicidal rating ([1]; rate 0.0157 kg/ha): 7.0
ABUTH herbicidal rating ([1]; rate 0.0313 kg/ha): 8.0
ABUTH herbicidal rating ([1]; rate 0.0625 kg/ha): 8.0
ABUTH herbicidal rating ([1]; rate 0.1250 kg/ha): 9.0
ABUTH herbicidal rating ([1]; rate 0.2500 kg/ha): 9.0
ABUTH herbicidal rating ([1]; rate 0.5000 kg/ha): 9.0
SETVI herbicidal rating ([2]; rate 0.0157 kg/ha): 0.0
SETVI herbicidal rating ([2]; rate 0.0313 kg/ha): 0.0
SETVI herbicidal rating ([2]; rate 0.0625 kg/ha): 0.0
SETVI herbicidal rating ([2]; rate 0.1250 kg/ha): 2.0
SETVI herbicidal rating ([2]; rate 0.2500 kg/ha): 2.0
SETVI herbicidal rating ([2]; rate 0.5000 kg/ha): 2.0
ZEAMX herbicidal rating ([3]; rate 0.0157 kg/ha): 3.0
ZEAMX herbicidal rating ([3]; rate 0.0313 kg/ha): 3.5
ZEAMX herbicidal rating ([3]; rate 0.0625 kg/ha): 3.5
ZEAMX herbicidal rating ([3]; rate 0.1250 kg/ha): 3.5
ZEAMX herbicidal rating ([3]; rate 0.2500 kg/ha): 3.5
ZEAMX herbicidal rating ([3]; rate 0.5000 kg/ha): 4.0
ABUTH preemergence herbicidal rating ([4]; rate 0.1250 kg/ha): 0.0
ABUTH preemergence herbicidal rating ([4]; rate 0.2500 kg/ha): 0.0
ABUTH preemergence herbicidal rating ([4]; rate 0.5000 kg/ha): 0.0
AMBEL preemergence herbicidal rating ([5]; rate 0.1250 kg/ha): 0.0
AMBEL preemergence herbicidal rating ([5]; rate 0.2500 kg/ha): 0.0
AMBEL preemergence herbicidal rating ([5]; rate 0.5000 kg/ha): 0.0
CASOB preemergence herbicidal rating ([6]; rate 0.1250 kg/ha): 0.0
CASOB preemergence herbicidal rating ([6]; rate 0.2500 kg/ha): 0.0
CASOB preemergence herbicidal rating ([6]; rate 0.5000 kg/ha): 0.0
ECHCG preemergence herbicidal rating ([7]; rate 0.1250 kg/ha): 0.0
ECHCG preemergence herbicidal rating ([7]; rate 0.2500 kg/ha): 0.0
ECHCG preemergence herbicidal rating ([7]; rate 0.5000 kg/ha): 2.0
Herbicidal rating ECHORC ([8]; 0.0313 kg/ha): 0.0
Herbicidal rating ECHORC ([8]; 0.0625 kg/ha): 0.0
Herbicidal rating ECHORC ([8]; 0.1250 kg/ha): 2.0
Herbicidal rating ECHORC ([8]; 0.2500 kg/ha): 7.0
Herbicidal rating ECHORC ([8]; 0.5000 kg/ha): 7.0
Herbicidal rating CYPSE ([9]; 0.0313 kg/ha): 0.0
Herbicidal rating CYPSE ([9]; 0.0625 kg/ha): 0.0
Herbicidal rating CYPSE ([9]; 0.1250 kg/ha): 0.0
Herbicidal rating CYPSE ([9]; 0.2500 kg/ha): 0.0
Herbicidal rating CYPSE ([9]; 0.5000 kg/ha): 0.0
Herbicidal rating ECHORC ([10]; rate 0.0313 kg/ha): 0.0
Herbicidal rating ECHORC ([10]; rate 0.0625 kg/ha): 0.0
Herbicidal rating ECHORC ([10]; rate 0.1250 kg/ha): 1.0
Herbicidal rating ECHORC ([10]; rate 0.2500 kg/ha): 3.5
Herbicidal rating ECHORC ([10]; rate 0.5000 kg/ha): 3.5
Herbicidal rating CYPIR ([11]; rate 0.0313 kg/ha): 0.0
Herbicidal rating CYPIR ([11]; rate 0.0625 kg/ha): 1.0
Herbicidal rating CYPIR ([11]; rate 0.1250 kg/ha): 2.0
Herbicidal rating CYPIR ([11]; rate 0.2500 kg/ha): 3.0
Herbicidal rating CYPIR ([11]; rate 0.5000 kg/ha): 3.5

CN1C(=O)CS/C1=N/c1cc(-n2c(=O)cc(C(F)(F)F)n(C)c2=O)c(F)cc1Cl [Compound 7]
ABUTH herbicidal rating ([1]; rate 0.0157 kg/ha): 9.0
ABUTH herbicidal rating ([1]; rate 0.0313 kg/ha): 9.0
ABUTH herbicidal rating ([1]; rate 0.0625 kg/ha): 9.0
ABUTH herbicidal rating ([1]; rate 0.1250 kg/ha): 9.0
SETVI herbicidal rating ([2]; rate 0.0157 kg/ha): 5.0
SETVI herbicidal rating ([2]; rate 0.0313 kg/ha): 4.0
SETVI herbicidal rating ([2]; rate 0.0625 kg/ha): 9.0
SETVI herbicidal rating ([2]; rate 0.1250 kg/ha): 9.0
GLXMAW herbicidal rating ([12]; rate 0.0157 kg/ha): 5.0
GLXMAW herbicidal rating ([12]; rate 0.0313 kg/ha): 6.5
GLXMAW herbicidal rating ([12]; rate 0.0625 kg/ha): 7.5
GLXMAW herbicidal rating ([12]; rate 0.1250 kg/ha): 7.5
ZEAMX herbicidal rating ([3]; rate 0.0157 kg/ha): 5.0
ZEAMX herbicidal rating ([3]; rate 0.0313 kg/ha): 6.0
ZEAMX herbicidal rating ([3]; rate 0.0625 kg/ha): 7.0
ZEAMX herbicidal rating ([3]; rate 0.1250 kg/ha): 7.0
ABUTH preemergence herbicidal rating ([4]; rate 0.0157 kg/ha): 9.0
ABUTH preemergence herbicidal rating ([4]; rate 0.0313 kg/ha): 9.0
ABUTH preemergence herbicidal rating ([4]; rate 0.0625 kg/ha): 9.0
ABUTH preemergence herbicidal rating ([4]; rate 0.1250 kg/ha): 9.0
ABUTH preemergence herbicidal rating ([4]; rate 0.2500 kg/ha): 9.0
AMBEL preemergence herbicidal rating ([5]; rate 0.0157 kg/ha): 5.0
AMBEL preemergence herbicidal rating ([5]; rate 0.0313 kg/ha): 8.5
AMBEL preemergence herbicidal rating ([5]; rate 0.0625 kg/ha): 9.0
AMBEL preemergence herbicidal rating ([5]; rate 0.1250 kg/ha): 9.0
AMBEL preemergence herbicidal rating ([5]; rate 0.2500 kg/ha): 9.0
CASOB preemergence herbicidal rating ([6]; rate 0.0157 kg/ha): 9.0
CASOB preemergence herbicidal rating ([6]; rate 0.0313 kg/ha): 9.0
CASOB preemergence herbicidal rating ([6]; rate 0.0625 kg/ha): 9.0
CASOB preemergence herbicidal rating ([6]; rate 0.1250 kg/ha): 8.0
CASOB preemergence herbicidal rating ([6]; rate 0.2500 kg/ha): 9.0
IPOHE preemergence herbicidal rating ([13]; rate 0.0313 kg/ha): 4.0
IPOHE preemergence herbicidal rating ([13]; rate 0.0625 kg/ha): 4.0
IPOHE preemergence herbicidal rating ([13]; rate 0.1250 kg/ha): 9.0
IPOHE preemergence herbicidal rating ([13]; rate 0.2500 kg/ha): 9.0
ECHCG preemergence herbicidal rating ([7]; rate 0.0157 kg/ha): 5.0
ECHCG preemergence herbicidal rating ([7]; rate 0.0313 kg/ha): 9.0
ECHCG preemergence herbicidal rating ([7]; rate 0.0625 kg/ha): 9.0
ECHCG preemergence herbicidal rating ([7]; rate 0.1250 kg/ha): 9.0
ECHCG preemergence herbicidal rating ([7]; rate 0.2500 kg/ha): 9.0
Herbicidal rating ECHORC ([8]; 0.0313 kg/ha): 8.0
Herbicidal rating ECHORC ([8]; 0.0625 kg/ha): 9.0
Herbicidal rating ECHORC ([8]; 0.1250 kg/ha): 9.0
Herbicidal rating ECHORC ([8]; 0.2500 kg/ha): 9.0
Herbicidal rating CYPSE ([9]; 0.0313 kg/ha): 4.0
Herbicidal rating CYPSE ([9]; 0.0625 kg/ha): 7.0
Herbicidal rating CYPSE ([9]; 0.1250 kg/ha): 7.0
Herbicidal rating CYPSE ([9]; 0.2500 kg/ha): 9.0
Herbicidal rating ECHORC ([10]; rate 0.0313 kg/ha): 7.0
Herbicidal rating ECHORC ([10]; rate 0.0625 kg/ha): 8.5
Herbicidal rating ECHORC ([10]; rate 0.1250 kg/ha): 9.0
Herbicidal rating ECHORC ([10]; rate 0.2500 kg/ha): 9.0
Herbicidal rating CYPIR ([11]; rate 0.0313 kg/ha): 8.5
Herbicidal rating CYPIR ([11]; rate 0.0625 kg/ha): 9.0
Herbicidal rating CYPIR ([11]; rate 0.1250 kg/ha): 9.0
Herbicidal rating CYPIR ([11]; rate 0.2500 kg/ha): 9.0
